The values that follow come from US20030064912A1, “Pharmaceutical compositions and methods of inhibiting angiogenesis using NAALADase inhibitors” (priority 1998, published 2003).

One data set has as its target NAALADase (Homo sapiens, UniProt Q04609). The experiment in a line: In vitro inhibition of NAALADase activity. The data set is classed as biochemical. Conditions: for Ki: in vitro inhibition of NAALADase activity; for NAALADase inhibiting activity (in words): qualitative, compared with 2-(phosphonomethyl)pentanedioic acid. The procedure:
Various compounds of the present invention were tested for in vitro inhibition of NAALADase activity.

A further data set relates to mice. Description: In vivo toxicity of NAALADase inhibitors in mice. As to conditions: for Survival Rate After 5 days (%): observed 5 consecutive days. From the text: The mice were subsequently observed two times per day for 5 consecutive days. The survival rate at each dose level is provided below in TABLE II.
In data set [1] the test system is angiogenesis in the Matrigel™/bFGF gels. Description: In vivo assay of a continuous dosage of NAALADase inhibitors on angiogenesis (miniosmotic pumps, Matrigel/bFGF). More on the design: species or system C57B1 female mice. Conditions: 13 days post injection. As for the experimental part:
Minipumps filled with vehicle (50 mM Hepes) were also implanted at this time. Twenty-four hours later, mice were each injected subcutaneously with 0.5 mL Matrigel™ and the 150 ng/mL of the angiogenic factor, basic FGF (bFGF). Thirteen days post Matrigel™/bFGF injection, the gels were recovered, fixed in formalin and sections were stained with Trichrome-Masson stain.

Data set [2] relates to angiogenesis in Matrigel™ plugs. Description: In vivo assay of daily dosages of NAALADase inhibitors on angiogenesis (Matrigel plug with bFGF). Also noted: species or system C57B1 female mice. As to conditions: 7 days post injection. As for the experimental part:
C57B1 female mice age 8 to 10 weeks (5/group) were injected subcutaneously with 0.5 mL of Matrigel™, 150 ng/mL of the angiogenic factor basic FGF (bFGF) and with 0, 0.47 μM or 4.7 μM […] (PMPA). The injected Matrigel™ rapidly formed a gel. […] Seven days post Matrigel™ injection, Matrigel™ plugs were excised and histology was performed.
The concentrations of the daily dosages as well as the coinciding initial Matrigel™ plug compositions are provided below in TABLE IV.

NAALADase, sequence (Q04609 whole entry): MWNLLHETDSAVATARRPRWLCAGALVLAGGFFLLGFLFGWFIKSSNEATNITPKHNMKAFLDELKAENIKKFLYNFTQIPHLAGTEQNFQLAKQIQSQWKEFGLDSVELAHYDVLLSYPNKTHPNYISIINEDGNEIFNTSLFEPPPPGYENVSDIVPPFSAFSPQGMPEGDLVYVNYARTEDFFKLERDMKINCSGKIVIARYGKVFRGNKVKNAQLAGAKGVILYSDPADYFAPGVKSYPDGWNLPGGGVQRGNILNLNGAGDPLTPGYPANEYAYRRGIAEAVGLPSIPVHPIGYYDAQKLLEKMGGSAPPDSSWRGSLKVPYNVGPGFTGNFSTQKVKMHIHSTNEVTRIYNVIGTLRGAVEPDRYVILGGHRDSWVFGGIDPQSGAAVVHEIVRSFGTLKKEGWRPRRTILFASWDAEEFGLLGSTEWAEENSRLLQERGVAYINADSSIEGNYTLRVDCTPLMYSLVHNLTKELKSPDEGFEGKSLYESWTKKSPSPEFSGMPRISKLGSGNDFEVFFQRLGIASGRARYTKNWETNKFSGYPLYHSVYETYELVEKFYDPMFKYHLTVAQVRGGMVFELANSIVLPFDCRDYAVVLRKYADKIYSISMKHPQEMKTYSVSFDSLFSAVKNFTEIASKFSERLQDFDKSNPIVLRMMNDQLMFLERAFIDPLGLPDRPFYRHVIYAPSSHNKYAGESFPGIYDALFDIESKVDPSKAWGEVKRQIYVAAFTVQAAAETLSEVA

The Ki is the equilibrium dissociation constant of an inhibitor or competing ligand from its target. At NAALADase, `O=C(O)CCC(CP(=O)(O)CNCc1ccccc1)C(=O)O` (stereo not drawn) gave a Ki of 0.0518 µM.

With `O=C(O)CCC(CP(=O)(O)Cc1cccc(C(F)(F)F)c1)C(=O)O` (stereo not drawn), the affinity on NAALADase, expressed as Ki, was 0.0225 µM.

Regarding `CC(=O)NCP(=O)(O)CC(CCC(=O)O)C(=O)O` (stereo not drawn), the affinity at NAALADase corresponds to a Ki of 0.118 µM.

In the case of `O=C(O)CC(CP(=O)(O)O)C(=O)O` (stereo not drawn) [2-(phosphonomethyl)succinic acid], at NAALADase, the “NAALADase inhibiting activity (in words)” value was “much lower NAALADase inhibiting activity”.

At NAALADase, `CC(CP(=O)(O)CC(CCC(=O)O)C(=O)O)C(=O)O` (stereo not drawn) gave an inhibitory constant (Ki) of 0.0015 µM.

For `O=C(O)CCC(CP(=O)(O)CC(CCC(=O)O)C(=O)O)C(=O)O` (stereo not drawn), the affinity at NAALADase corresponds to a Ki of 0.00057 µM.

For the compound `O=C(O)CCC(CP(=O)(O)CCCc1ccccc1)C(=O)O` (stereo not drawn), the inhibition constant (Ki) on NAALADase was 0.232 µM.

Consider `O=C(O)CCC(CP(=O)(O)CNC(=O)Nc1ccccc1)C(=O)O` (stereo not drawn), for which affinity on NAALADase was put at a Ki of 0.075 µM.

As to `O=C(O)CCC(CP(=O)(O)O)C(=O)O` (stereo not drawn) [2-(phosphonomethyl)pentanedioic acid], the “Survival Rate After 5 days (%)” value with mice (dose 1 mg/kg), in the data set with mice (dose 5 mg/kg), with mice (dose 10 mg/kg), with mice (dose 30 mg/kg), with mice (dose 100 mg/kg) and in the data set on mice (dose 300 mg/kg) was 100% each time. In the data set with mice (dose 500 mg/kg), the “Survival Rate After 5 days (%)” value came to 66.7%. The “Toxicity to mice (in words)” value in the data set on mice (doses 1 to 500 mg/kg) is “non-toxic to mice”. Further, the “Angiogenic response in Matrigel™/bFGF gels” value in data set [1] (1 μg/day continuous by minipump) is on record as “strong angiogenic response”; in data set [1] (10 μg/day continuous by minipump) it was “significantly decreased angiogenesis”; in data set [1] (100 μg/day continuous by minipump) it was “significantly decreased angiogenesis”. The “Angiogenic response in Matrigel™ plugs (histology)” value is listed as “decreased neovasculature or angiogenesis” in data set [2] (3 mg/kg daily subcutaneous injection, 0.47 μM in Matrigel); “decrease in blood vessels or angiogenesis” in data set [2] (3 mg/kg daily subcutaneous injection, 0.47 μM in Matrigel, listed as PMPA); “decreased neovasculature or angiogenesis” in data set [2] (30 mg/kg daily subcutaneous injection, 4.7 μM in Matrigel); “decrease in blood vessels or angiogenesis” in data set [2] (30 mg/kg daily subcutaneous injection, 4.7 μM in Matrigel, listed as PMPA). In addition, the “NAALADase inhibiting activity (in words)” value at NAALADase is on record as “high NAALADase inhibiting activity”.

In the case of `O=C(O)CCC(CP(=O)(O)CCC(=O)O)C(=O)O` (stereo not drawn) [2-[[(2-carboxyethyl)hydroxyphosphinyl]-methyl]pentanedioic acid], on NAALADase, the affinity corresponds to a Ki of 0.00189 ± 0.00019 µM and the “NAALADase inhibiting activity (in words)” value was “lower NAALADase inhibiting activity”.

Take `COc1ccc(NCP(=O)(O)CC(CCC(=O)O)C(=O)O)cc1` (stereo not drawn): at NAALADase, the Ki is 0.0025 µM.

On to `O=C(O)CCC(CP(=O)(O)CC(CCC(=O)OCc1ccccc1)C(=O)OCc1ccccc1)C(=O)O` (stereo not drawn), for which the affinity at NAALADase corresponds to a Ki of 0.0127 µM.

`O=C(O)CCC(CP(=O)(O)C(NCc1ccccc1)c1ccccc1)C(=O)O` (stereo not drawn) registered an inhibition constant (Ki) at NAALADase of 0.313 µM.

As for `O=C(O)CCC(CP(=O)(O)Cc1c(F)c(F)c(F)c(F)c1F)C(=O)O` (stereo not drawn), the inhibitory constant (Ki) on NAALADase amounted to 0.0227 µM.

For `O=C(O)CCC(CP(=O)(O)c1ccccc1)C(=O)O` (stereo not drawn), affinity at NAALADase was put at a Ki of 0.0358 µM.

For `O=C(O)CCC(CP(=O)(O)Cc1ccccc1)C(=O)O` (stereo not drawn), at NAALADase, affinity was put at a Ki of 0.0341 µM.

As to `CCCCP(=O)(O)CC(CCC(=O)O)C(=O)O` (stereo not drawn), on NAALADase, the affinity, expressed as Ki, was 0.114 µM.

At NAALADase, `O=C(O)CCC(CP(=O)(O)CCc1ccccc1)C(=O)O` (stereo not drawn) had an inhibition constant (Ki) of 0.148 µM.

Compound `Cc1ccc(NCP(=O)(O)CC(CCC(=O)O)C(=O)O)cc1` (stereo not drawn) had a Ki on NAALADase of 0.0052 µM.

With `O=C(O)CCC(CP(=O)(O)CN1C(=O)c2ccccc2C1=O)C(=O)O` (stereo not drawn), at NAALADase, the inhibition constant (Ki) was found to be 0.0345 µM.
